Measured values taken from PubChem BioAssay AID1845208 (Molecular Pharmacology Branch, DTP, NCI, 2023).
pIC50: −log10 of the molar value.

Tested on: NCI-H196 SCLC complex tumor spheroid viability
Experiment: Anticancer human tumor NCI-H196 cell line growth inhibition;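 further: spheroids exposed to compounds for 7 days before readout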;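 on viability, T/C: 100% = DMSO vehicle control wells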
Details: for pIC50: curve of first compound; for viability, T/C: stronger effect = lower value
Outline: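 Complex tumor spheroids combined malignant cells with endothelial cells and mesenchymal stem cells. DNA-damaging drugs and DNA repair inhibitors were tested alone and in combination, at half-log dilutions down from clinical Cmax (top 10 microM if Cmax unknown), 0.25% DMSO final.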

[1] = second compound 30 pM, first compound 0.0949 µM
[2] = second compound 30 pM, first compound 0.3 µM
[3] = second compound 30 pM, first compound 0.949 µM
[4] = second compound 30 pM, first compound 3 µM
[5] = second compound 94.9 pM, first compound 0.0949 µM
[6] = second compound 94.9 pM, first compound 0.3 µM
[7] = second compound 94.9 pM, first compound 0.949 µM
[8] = second compound 94.9 pM, first compound 3 µM
[9] = second compound 0.0003 µM, first compound 0.0949 µM
[10] = second compound 0.0003 µM, first compound 0.3 µM
[11] = second compound 0.0003 µM, first compound 0.949 µM
[12] = second compound 0.0003 µM, first compound 3 µM
[13] = second compound 0.000949 µM, first compound 0.0949 µM
[14] = second compound 0.000949 µM, first compound 0.3 µM
[15] = second compound 0.000949 µM, first compound 0.949 µM
[16] = second compound 0.000949 µM, first compound 3 µM
[17] = second compound 0.003 µM, first compound 0.0949 µM
[18] = second compound 0.003 µM, first compound 0.3 µM
[19] = second compound 0.003 µM, first compound 0.949 µM
[20] = second compound 0.003 µM, first compound 3 µM

How did the pIC50 (second compound 0.003 µM) turn out when `COc1ccc([C@@H](O)c2cc(-c3ncnc4cc(N5CCOCC5)ccc34)c(F)cc2Cl)nn1` + CC[C@@]1(O)C(=O)OCc2c1cc1n(c2=O)Cc2cc3c(CN(C)C)c(O)ccc3nc2-1 was run?
The pIC50 was under 5.00.

What about the pIC50 (second compound 0.00949 µM) of the same compound?
Its pIC50 is under 5.00.

And the pIC50 (second compound 0.03 µM)?
The pIC50 was 5.23.

And the pIC50 (second compound 0.0949 µM)?
The pIC50 was 5.58.

And the pIC50 (second compound 0.3 µM)?
The pIC50 was 5.58.

And the viability, T/C (second compound 0.003 µM, first compound 0.0316 µM)?
The viability, T/C was 100%.

What about the viability, T/C (second compound 0.003 µM, first compound 0.1 µM) of the same compound?
The viability, T/C was 99.6%.

And the viability, T/C (second compound 0.003 µM, first compound 0.316 µM)?
Its viability, T/C is 90.8%.

What about the viability, T/C (second compound 0.003 µM, first compound 1 µM) of the same compound?
The viability, T/C was 82.3%.

What about the viability, T/C (second compound 0.003 µM, first compound 3.16 µM) of the same compound?
The viability, T/C was 69.2%.

And the viability, T/C (second compound 0.003 µM, first compound 10 µM)?
The viability, T/C was 55.2%.

And the viability, T/C (second compound 0.00949 µM, first compound 0.0316 µM)?
The viability, T/C was 98%.

What about the viability, T/C (second compound 0.00949 µM, first compound 0.1 µM) of the same compound?
Its viability, T/C is 97.1%.

What about the viability, T/C (second compound 0.00949 µM, first compound 0.316 µM) of the same compound?
The viability, T/C was 95.5%.

And the viability, T/C (second compound 0.00949 µM, first compound 1 µM)?
The viability, T/C was 88.9%.

And the viability, T/C (second compound 0.00949 µM, first compound 3.16 µM)?
The viability, T/C was 65.7%.

And the viability, T/C (second compound 0.00949 µM, first compound 10 µM)?
The viability, T/C was 52.8%.

And the viability, T/C (second compound 0.03 µM, first compound 0.0316 µM)?
Its viability, T/C is 93.5%.

And the viability, T/C (second compound 0.03 µM, first compound 0.1 µM)?
Its viability, T/C is 92.3%.

What about the viability, T/C (second compound 0.03 µM, first compound 0.316 µM) of the same compound?
The viability, T/C was 88.1%.

What about the viability, T/C (second compound 0.03 µM, first compound 1 µM) of the same compound?
The viability, T/C was 72.5%.

And the viability, T/C (second compound 0.03 µM, first compound 3.16 µM)?
Its viability, T/C is 58.6%.

And the viability, T/C (second compound 0.03 µM, first compound 10 µM)?
The viability, T/C was 43.5%.

And the viability, T/C (second compound 0.0949 µM, first compound 0.0316 µM)?
The viability, T/C was 99.8%.

And the viability, T/C (second compound 0.0949 µM, first compound 0.1 µM)?
The viability, T/C was 102%.

And the viability, T/C (second compound 0.0949 µM, first compound 0.316 µM)?
Its viability, T/C is 93.5%.

And the viability, T/C (second compound 0.0949 µM, first compound 1 µM)?
Its viability, T/C is 70.2%.

And the viability, T/C (second compound 0.0949 µM, first compound 3.16 µM)?
Its viability, T/C is 46.2%.

And the viability, T/C (second compound 0.0949 µM, first compound 10 µM)?
Its viability, T/C is 39.5%.

And the viability, T/C (second compound 0.3 µM, first compound 0.0316 µM)?
The viability, T/C was 107%.

And the viability, T/C (second compound 0.3 µM, first compound 0.1 µM)?
The viability, T/C was 104%.

What about the viability, T/C (second compound 0.3 µM, first compound 0.316 µM) of the same compound?
The viability, T/C was 88.8%.

And the viability, T/C (second compound 0.3 µM, first compound 1 µM)?
Its viability, T/C is 71.9%.

And the viability, T/C (second compound 0.3 µM, first compound 3.16 µM)?
Its viability, T/C is 43.1%.

And the viability, T/C (second compound 0.3 µM, first compound 10 µM)?
Its viability, T/C is 37.1%.

Which results are given for `Cn1ncnc1[C@H]1c2n[nH]c(=O)c3cc(F)cc(c23)N[C@@H]1c1ccc(F)cc1` + COc1cc2c(cc1O)CCNC21CSC2c3c(OC(C)=O)c(C)c4c(c3C(COC1=O)N1C(O)C3Cc5cc(C)c(OC)c(O)c5C(C21)N3C)OCO4?
pIC50 (second compound 30 pM): < 5.52; pIC50 (second compound 94.9 pM): < 5.52; pIC50 (second compound 0.0003 µM): < 5.52; pIC50 (second compound 0.000949 µM): < 5.52; pIC50 (second compound 0.003 µM): > 8.02; viability, T/C (second compound 30 pM, first compound 0.00949 µM): 100%; viability, T/C (second compound 30 pM, first compound 0.03 µM): 99.3%; viability, T/C [1]: 98.6%; viability, T/C [2]: 97%; viability, T/C [3]: 94.6%; viability, T/C [4]: 92.4%; viability, T/C (second compound 94.9 pM, first compound 0.00949 µM): 99.3%; viability, T/C (second compound 94.9 pM, first compound 0.03 µM): 99.3%; viability, T/C [5]: 98.8%; viability, T/C [6]: 98.6%; viability, T/C [7]: 92.7%; viability, T/C [8]: 99%; viability, T/C (second compound 0.0003 µM, first compound 0.00949 µM): 102%; viability, T/C (second compound 0.0003 µM, first compound 0.03 µM): 97.5%; viability, T/C [9]: 101%; viability, T/C [10]: 93.5%; viability, T/C [11]: 92.2%; viability, T/C [12]: 87.7%; viability, T/C (second compound 0.000949 µM, first compound 0.00949 µM): 92.3%; viability, T/C (second compound 0.000949 µM, first compound 0.03 µM): 85.1%; viability, T/C [13]: 82%; viability, T/C [14]: 92.4%; viability, T/C [15]: 87%; viability, T/C [16]: 71.2%; viability, T/C (second compound 0.003 µM, first compound 0.00949 µM): 6.21%; viability, T/C (second compound 0.003 µM, first compound 0.03 µM): 7.26%; viability, T/C [17]: 4.58%; viability, T/C [18]: 3.69%; viability, T/C [19]: 2.82%; viability, T/C [20]: 1.01%

How did the pIC50 (second compound 30 pM) turn out when `O=C(c1cc(Cc2n[nH]c(=O)c3ccccc23)ccc1F)N1CCN(C(=O)C2CC2)CC1` + COc1cc2c(cc1O)CCNC21CSC2c3c(OC(C)=O)c(C)c4c(c3C(COC1=O)N1C(O)C3Cc5cc(C)c(OC)c(O)c5C(C21)N3C)OCO4 was run?
Its pIC50 is under 4.52.

What about the pIC50 (second compound 94.9 pM) of the same compound?
The pIC50 was under 4.52.

What about the pIC50 (second compound 0.0003 µM) of the same compound?
The pIC50 was under 4.52.

And the pIC50 (second compound 0.000949 µM)?
The pIC50 was under 4.52.

And the pIC50 (second compound 0.003 µM)?
Its pIC50 is over 7.02.

And the viability, T/C [1]?
Its viability, T/C is 107%.

What about the viability, T/C [2] of the same compound?
The viability, T/C was 105%.

And the viability, T/C [3]?
The viability, T/C was 101%.

What about the viability, T/C [4] of the same compound?
Its viability, T/C is 98.9%.

And the viability, T/C (second compound 30 pM, first compound 9.49 µM)?
Its viability, T/C is 85.5%.

What about the viability, T/C (second compound 30 pM, first compound 30 µM) of the same compound?
Its viability, T/C is 67.2%.

And the viability, T/C [5]?
The viability, T/C was 104%.

What about the viability, T/C [6] of the same compound?
The viability, T/C was 102%.

What about the viability, T/C [7] of the same compound?
Its viability, T/C is 102%.

And the viability, T/C [8]?
The viability, T/C was 93.7%.

What about the viability, T/C (second compound 94.9 pM, first compound 9.49 µM) of the same compound?
Its viability, T/C is 91.5%.

And the viability, T/C (second compound 94.9 pM, first compound 30 µM)?
The viability, T/C was 62.7%.

What about the viability, T/C [9] of the same compound?
Its viability, T/C is 99.6%.

And the viability, T/C [10]?
The viability, T/C was 105%.

And the viability, T/C [11]?
The viability, T/C was 99.5%.

What about the viability, T/C [12] of the same compound?
Its viability, T/C is 92%.

And the viability, T/C (second compound 0.0003 µM, first compound 9.49 µM)?
Its viability, T/C is 84.3%.

What about the viability, T/C (second compound 0.0003 µM, first compound 30 µM) of the same compound?
Its viability, T/C is 66%.

What about the viability, T/C [13] of the same compound?
Its viability, T/C is 86.4%.

What about the viability, T/C [14] of the same compound?
Its viability, T/C is 86.9%.

And the viability, T/C [15]?
Its viability, T/C is 80.7%.

What about the viability, T/C [16] of the same compound?
Its viability, T/C is 78.5%.

And the viability, T/C (second compound 0.000949 µM, first compound 9.49 µM)?
The viability, T/C was 68.9%.

And the viability, T/C (second compound 0.000949 µM, first compound 30 µM)?
Its viability, T/C is 54.4%.

What about the viability, T/C [17] of the same compound?
Its viability, T/C is 3.15%.

And the viability, T/C [18]?
The viability, T/C was 6.44%.

And the viability, T/C [19]?
The viability, T/C was 3.39%.

And the viability, T/C [20]?
The viability, T/C was 1.87%.

What about the viability, T/C (second compound 0.003 µM, first compound 9.49 µM) of the same compound?
Its viability, T/C is 0.89%.

And the viability, T/C (second compound 0.003 µM, first compound 30 µM)?
Its viability, T/C is 1.4%.
